Values quoted from earlier work, collected in patent US12324852B2, “Administration of benzodiazepine compositions” (Neurelis, Inc., priority 2011, dated 2025).

In the case of `Cc1ncc2n1-c1ccc(Cl)cc1C(c1ccccc1F)=NC2` [Midazolam, 8-chloro-6-(2-fluorophenyl)-1-methyl-4H-imidazo(1,5-a)benzodiazepine], the “solubility in most aqueous solutions” value (neutral pH (e.g. about 6 to 8)) is given as “relatively insoluble” and the solubility in water (pH lower than about 4) is given as “soluble in water”.
